From patent US20220071971A1, “MACROCYCLIC COMPOUNDS AND THEIR USE IN THE TREATMENT OF DISEASE” (NOVARTIS AG, priority 2018, published 2022)
Where two headings read alike, the source gives them in different places.

Legend:
[1] = target: T1, delF508-CFTR (Homo sapiens, UniProt P13569, DEL508-508); test: Measurement of delF508-CFTR-HRP surface expression in CFBE41o- cells; assay type: cell-based; details: for Emax: CFBE41o-, read-out: DelF508-CFTR-HRP Amax %; for EC50: HRP-tagged delF508-CFTR surface expression, CFBE41o- cells, 24 h with compound, 10-point curve, highest concentration 10 μM
T1 construct: expressed in transfected cells
T1 sequence (P13569 with tags, fused parts or gaps DEL508-508): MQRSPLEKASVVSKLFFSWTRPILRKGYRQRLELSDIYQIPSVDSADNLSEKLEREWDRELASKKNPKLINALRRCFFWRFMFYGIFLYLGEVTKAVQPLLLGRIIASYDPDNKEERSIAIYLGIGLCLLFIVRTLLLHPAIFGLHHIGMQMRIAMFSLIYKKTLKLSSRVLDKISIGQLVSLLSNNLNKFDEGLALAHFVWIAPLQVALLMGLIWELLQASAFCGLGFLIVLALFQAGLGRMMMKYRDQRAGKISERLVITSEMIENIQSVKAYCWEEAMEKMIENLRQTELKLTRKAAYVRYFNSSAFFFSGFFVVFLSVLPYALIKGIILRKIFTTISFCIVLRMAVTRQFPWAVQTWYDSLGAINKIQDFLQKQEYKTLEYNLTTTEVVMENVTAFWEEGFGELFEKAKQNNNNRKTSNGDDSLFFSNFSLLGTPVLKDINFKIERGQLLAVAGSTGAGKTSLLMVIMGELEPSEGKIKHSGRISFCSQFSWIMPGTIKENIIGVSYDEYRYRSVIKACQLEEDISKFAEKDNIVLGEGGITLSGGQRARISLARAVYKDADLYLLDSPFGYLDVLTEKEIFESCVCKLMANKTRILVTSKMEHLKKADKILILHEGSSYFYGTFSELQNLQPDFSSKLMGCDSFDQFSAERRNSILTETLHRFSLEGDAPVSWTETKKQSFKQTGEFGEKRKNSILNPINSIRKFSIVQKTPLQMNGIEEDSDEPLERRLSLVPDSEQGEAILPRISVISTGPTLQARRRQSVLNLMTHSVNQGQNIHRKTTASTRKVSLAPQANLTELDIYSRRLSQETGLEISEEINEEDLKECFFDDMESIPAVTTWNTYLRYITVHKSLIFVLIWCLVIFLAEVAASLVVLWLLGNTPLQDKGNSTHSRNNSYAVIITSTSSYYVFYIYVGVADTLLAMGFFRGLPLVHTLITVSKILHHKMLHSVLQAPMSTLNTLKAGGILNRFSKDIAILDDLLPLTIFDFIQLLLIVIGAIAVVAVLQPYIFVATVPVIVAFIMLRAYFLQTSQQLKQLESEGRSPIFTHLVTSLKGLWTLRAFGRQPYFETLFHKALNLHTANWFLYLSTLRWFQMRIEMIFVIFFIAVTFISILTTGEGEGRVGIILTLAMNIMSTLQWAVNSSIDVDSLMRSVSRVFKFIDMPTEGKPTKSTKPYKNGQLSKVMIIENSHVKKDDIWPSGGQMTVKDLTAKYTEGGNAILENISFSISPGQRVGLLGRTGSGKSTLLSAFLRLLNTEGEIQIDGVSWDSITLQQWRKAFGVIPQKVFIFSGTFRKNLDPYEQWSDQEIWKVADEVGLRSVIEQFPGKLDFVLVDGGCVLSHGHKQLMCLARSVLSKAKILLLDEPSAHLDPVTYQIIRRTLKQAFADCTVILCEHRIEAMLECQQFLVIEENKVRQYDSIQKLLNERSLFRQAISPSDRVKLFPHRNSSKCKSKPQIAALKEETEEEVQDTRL
Procedure, shortened: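 CFBE41o- cells stably expressing delF508-CFTR with HRP in the fourth extracellular loop, induced 48 h with 500 ng/mL doxycycline, then exposed to compound (10-point, 3-fold, top 10 μM, ≤0.5% DMSO) for 24 h at 37° C. Surface HRP read by luminescence with cell-impermeant substrate; EC50 by logistic fit, triplicates, efficacy relative to reference corrector.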

[2] = target: T1, delF508-CFTR; test: Measurement of delF508-CFTR functional activity in primary human bronchial epithelial cells (HBECs) using MTECC-24 assay; assay type: cell-based; details: for EC50: primary human delF508-CFTR bronchial epithelial cells, 24 hr compound treatment, equivalent short circuit current, forskolin and potentiator, mean of at least two replicates, read-out: MTECC24 CFHBEC EC50; for MTECC24 CFHBEC Amax %: test compound (24 h) with potentiator (S)-3-amino-6-methoxy-N-(3,3,3-trifluoro-2-hydroxy-2-methylpropyl)-5-(trifluoromethyl)picolinamide, relative to 2 μM 3-(6-(1-(2,2-difluorobenzo[d][1,3]dioxol-5-yl)cyclopropane-1-carboxamido)-3-methylpyridin-2-yl)benzoic acid plus 0.5 μM N-(2,4-di-tert-butyl-5-hydroxyphenyl)-4-oxo-1,4-dihydroquinoline-3-carboxamide
Text: Measurement of delF508-CFTR Functional Activity in Primary Human Bronchial Epithelial Cells (HBECs) Using Multi-Transepithelial Clamp Circuit (MTECC-24) Assay
This assay measures the functional activity of the CFTR channel (Chloride ion transport) in patient derived primary human bronchial epithilial cells with forskolin activation and in the presence of the CFTR corrector/potentiator combination.
Primary human delF508-CFTR bronchial epithelial cells were and cultured according to previously established methods (Neuberger, T. et, al., Methods in Molecular Biology, 2011, 741, pp 39-54). Briefly, before thawing the HBEC cells, T25 flasks were coated with 2 mL of 3T3 conditioned media (MTI-GlobalStem, Cat #GSM9100) for at least 12 hours in 37° C. CO2 incubator. 1.7×10^5 cells were seeded into one T25 flask with 5 mL of HBE growth media (BEBM with supplements (Lonza, Cat #CC-3170) with 10 nM of retinoic acid (Sigma, Cat #R-2625) and 1% of PSA (Hyclone, Cat #SV30079.01). Media was changed every day till the cells were 100% confluent. Cells were seeded into T75 flasks (pre-coated with 5 mL of 3T3 conditioned media for more than 12 hrs) at 4.95×10^5 cells/T75 flask in 15 mL of HBE growth media. Flasks were fed everyday with fresh HBE growth media until the cells were confluent. 24-well transwell plates (Corning, Cat #3378) were coated with 3T3 conditioned media (70 μL on top of the filter, 350 μL to the bottom of the well) overnight in the 37° C. CO2 incubator. Cells were seeded in the pre-coated 24-well transwell plates at 1.7×10^5 cell/well with 700 μL of growth media at the bottom of the well and 200 μL of growth media at the top of the filter. After 24 hrs, cells were switched into HBE differentiation media ((DMEM/F12 (Gibco, Cat #11330-032) supplement with 2% Ultroser G (Pall, Cat #15950-017), 2% of Fetal Clone II (Hyclone, Cat #SH30066.03), 0.25% Bovine Brain Extract (Lonza, Cat #CC-4098), 1% of PSA, 2.5 μg/mL of Insulin (Sigma, Cat #19278), 20 nM of Hydrocortisone (Sigma, Cat #H0888), 500 nM of Triiodothyronine (Sigma, Cat #T6397), 2.5 μg/mL of Transferrin (Sigma, Cat #T8158), 250 nM of Ethanolamine (Sigma, Cat #E0135), 1.5 μM of Epinephrine (Sigma, Cat #E4250), 250 nM of Phosphoethanolamine (Sigma, Cat #P0503), 10 nM of retinoic acid)) with 200 μL on top of the filter (apical side) and 700 μL at the bottom of the well (basolateral side). Cells were fed every other day with the differentiation media. After 4 days, cells were exposed to air/liquid interface. Then cells were fed every other day for 4 weeks before fully differentiated.
Cells were washed with 3 mM DTT in PBS at 70 ul/well for 30 min at 37° C. 6 days before the assay. 3 days before the assay, cells were washed again with PBS at 70 ul/well for 30 min at 37° C. Then cells were treated with compound for 24 hrs before the assay.
Following 24 hr treatment with compound, cells were transferred into plates containing 750 ul of assay media on basolateral side and 250 ul on apical side (Assay medium: F-12 Coon's modified, 20 mM HEPES pH7.4 with TRIS Base, No FCS or bicarbonate). The plates wee then transferred to the heated plate compartments (basolateral buffer temperature ˜36.5° C. on the heating block) of the TECC24 system for 45 mins prior to measurements.
Modulators were added sequentially as follows while the TECC24 instrument recorded the equivalent short circuit current (Ieq):
Prior to dilution into assay medium the stocks were as follows: Benzamil stock: 10 mM in DMSO
Forskolin Stock: 50 mM in DMSO
N-(2,4-di-tert-butyl-5-hydroxyphenyl)-1,4-dihydro-4-oxoquinoline-3-carboxamide: 50 mM in DMSO (S)-3-amino-6-methoxy-N-(3,3,3-trifluoro-2-hydroxy-2-methylpropyl)-5-(trifluoromethyl)picolinamide: 50 mM stock 100% DMSO Bumetanide stock: 20 mM in EtOH
The data was normalized using the median signal from wells treated with 0.1% DMSO as a baseline. Curve fitting and EC50 calculations were performed using the following equation: […]

[3] = efficacy relative to reference compound 3-(6-(1-(2,2-difluorobenzo[d][1,3]dioxol-5-yl)cyclopropane-1-carboxamido)-3-methylpyridin-2-yl)benzoic acid

| Compound | Emax [1, 3] [%] | EC50 [1] [nM] | EC50 [2] [nM] | MTECC24 CFHBEC Amax % [2] [%] | also measured |
| --- | --- | --- | --- | --- | --- |
| O=S1(=O)Nc2ccc(C(F)(F)F)c(n2)-c2ccccc2C=CCCCCN(CCCCCO)c2cccc1n2 |  |  |  |  | ring closure, isolated yield (from C=CCCCCN(CCCCCO)c1cccc(S(=O)(=O)Nc2ccc(C(F)(F)F)c(-c3ccccc3C=C)n2)n1, rcm bond, 17-membered ring, Grubbs II (20 mol%), DCM (or DCE), 1.85 mM, 55.0 °C): 94% |
| O=C(O)CCN1CCCCCc2ccccc2-c2nc(ccc2Cl)NS(=O)(=O)c2cccc1n2 [Compound 89, 3-(2^3-chloro-4,4-dioxido-4-thia-3,6-diaza-2,5(2,6)-dipyridina-1(1,2)-benzenacycloundecaphane-6-yl)propanoic acid] | 858 | 1180 | 30.9 | 56.7 |  |
| CC(C)(CO)CN1CCCCCc2ccccc2-c2nc(ccc2C(F)(F)F)NS(=O)(=O)c2cccc1n2 [Compound 27, 6-(3-hydroxy-2,2-dimethylpropyl)-2^3-(trifluoromethyl)-4-thia-3,6-diaza-2,5(2,6)-dipyridina-1(1,2)-benzenacycloundecaphane 4,4-dioxide] | 829 | 177 | 3.1 | 132.0 |  |
| CC(C)(CO)CN1CCCCCCc2ccccc2-c2nc(ccc2C(F)(F)F)NS(=O)(=O)c2cccc1n2 [Compound 28, 6-(3-hydroxy-2,2-dimethylpropyl)-2^3-(trifluoromethyl)-4-thia-3,6-diaza-2,5(2,6)-dipyridina-1(1,2)-benzenacyclododecaphane 4,4-dioxide] |  | 66 | 0.9 | 171.1 |  |
| O=S1(=O)Nc2ccc(C(F)(F)F)c(n2)-c2ccccc2C=CCCC(CCCO)Oc2cccc1n2 (stereo not drawn) |  |  |  |  | ring closure, isolated yield (from C=CCCC(CCCO)Oc1cccc(S(=O)(=O)Nc2ccc(C(F)(F)F)c(-c3ccccc3C=C)n2)n1, rcm bond, 16-membered ring, Grubbs II (10 mol%), DCM, 3.68 mM, 45.0 °C): 95% |
| tert-butyl 4-(4,4-dioxido-2^3-(trifluoromethyl)-10-oxa-4-thia-3,6-diaza-2,5(2,6)-dipyridina-1(1,2)-benzenacycloundecaphane-6-yl)butanoate |  |  |  |  | ring closure, isolated yield (snar bond, 16-membered ring, DIEA, NMP, 40.0 mM, 135.0 °C): 75% |
| O=C(O)CCCN1CCCCc2ccccc2-c2nc(ccc2C(F)(F)F)NS(=O)(=O)c2cccc1n2 [Compound 90, 4-(4,4-dioxido-2^3-(trifluoromethyl)-4-thia-3,6-diaza-2,5(2,6)-dipyridina-1(1,2)-benzenacyclodecaphane-6-yl)butanoic acid] | 674 | 919 | 4.6 | 123.2 |  |
| O=S1(=O)Nc2ccc(C(F)(F)F)c(n2)-c2ccccc2C=CCCN(CCO)c2cccc1n2 |  |  |  |  | ring closure, isolated yield (from C=CCCN(CCO)c1cccc(S(=O)(=O)Nc2ccc(C(F)(F)F)c(-c3ccccc3C=C)n2)n1, rcm bond, 15-membered ring, Grubbs II (two portions), DCM, 2.1 mM, 45.0 °C): 91% |

More lines, main results first:

| Emax [1, 3] [%] | EC50 [1] [nM] | EC50 [2] [nM] | MTECC24 CFHBEC Amax % [2] [%] | Compound | also measured |
| --- | --- | --- | --- | --- | --- |
|  | 351 | 4.3 | 175.8 | CC(C)(CN1CCCCCc2ccccc2-c2nc(ccc2C(F)(F)F)NS(=O)(=O)c2cccc1n2)C(=O)O [Compound 100, 3-(4,4-dioxido-2^3-(trifluoromethyl)-4-thia-3,6-diaza-2,5(2,6)-dipyridina-1(1,2)-benzenacycloundecaphane-6-yl)-2,2-dimethylpropanoic acid] |  |
|  | 391 | 1 | 213.1 | O=S1(=O)Nc2ccc(C(F)(F)F)c(n2)-c2ccccc2CCCCCN(CCO)c2cccc1n2 [Compound 117, 6-(2-hydroxyethyl)-2^3-(trifluoromethyl)-4-thia-3,6-diaza-2,5(2,6)-dipyridina-1(1,2)-benzenacycloundecaphane 4,4-dioxide] |  |
|  | 230 | 0.8 | 279.3 | CC(C)(CN1CCCCCCc2ccccc2-c2nc(ccc2C(F)(F)F)NS(=O)(=O)c2cccc1n2)C(=O)O [Compound 99, 3-(4,4-dioxido-2^3-(trifluoromethyl)-4-thia-3,6-diaza-2,5(2,6)-dipyridina-1(1,2)-benzenacyclododecaphane-6-yl)-2,2-dimethylpropanoic acid] |  |
| 982 | 694 | 6.9 | 90.0 | O=C(O)CCN1CCCCCc2ccccc2-c2nc(ccc2C(F)(F)F)NS(=O)(=O)c2cccc1n2 [Compound 92, 3-(4,4-dioxido-2^3-(trifluoromethyl)-4-thia-3,6-diaza-2,5(2,6)-dipyridina-1(1,2)-benzenacycloundecaphane-6-yl)propanoic acid] |  |
|  | 2030 | 100 | 69.2 | 3-(4,4-dioxido-2^3-(trifluoromethyl)-9-oxa-4-thia-3,6-diaza-2,5(2,6)-dipyridina-1(1,2)-benzenacyclododecaphane-6-yl)propanoic acid [Compound 98] | DelF508-CFTR-HRP Amax % [1, 3]: 719.0% |
